From article PMC12652692, “Synthesis and In Vitro Anticancer Evaluation of Novel Phosphonium Derivatives of Chrysin” (International Journal of Molecular Sciences, 2025)

Key:
Assay in all cases: NCI60 five-dose screen
Format in all cases: cell-based
A549/ATCC = settings: Homo sapiens, Non-small-Cell Lung Cancer
Method: (§1) Since all new conjugates (3a–h) had notable antiproliferative activities on several tumor cell lines in the course of the one-dose screening, they were subjected to a five-dose test. […] J. Mol. Sci. 2025, 26, 11063 10 of 10 S.3. NCI60 Screening A detailed description of the NCI screening procedures can also be found on the website of NCI [39], and in our previous work. S.3.1. One-Dose Screen All candidates were examined at first at a single high dose (10 μM) in the full NCI60 cell panel. The value reported for the one-dose test is growth relative to the no-drug control and relative to the time zero number of cells. This made possible the disclosure of both growth inhibition (numbers between 0 and 100) and lethality (numbers less than 0). For example, a value of 100 means no growth inhibition. A value of 20 would mean 80% growth inhibition. A value of 0 means no net growth over the course of the analysis. A value of −20 would mean 20% lethality. A value of −100 means all cells are dead. S.3.2. […] The human tumor cell lines of the cancer screening panel were grown in RPMI 1640 medium containing 5% fetal bovine serum and 2 mM l-glutamine. Characteristically, cells were injected in 96-well microtiter plates in 0.1 mL at plating densities ranging from 5000 to 40,000 cells/well, depending on the doubling time of individual cell lines. After cell inoculation, the microtiter plates were incubated at 37 °C, 5% carbon dioxide, 95% air, and 100% relative humidity for 24 hours before the addition of tested compounds. After 24 hours, 2 plates of each cell line were fixed in situ with Cl3COOH (TCA), to represent a measurement of the cell population for each cell line at the time of drug addition (tz). Tested compounds were solubilized in DMSO at 400-fold the desired final maximum test concentration and stored frozen before application. In the course of the drug addition, an aliquot of frozen concentrate was thawed and diluted to twice the desired final maximum test concentration with a complete medium containing 50 μg mL−1 gentamicin. Additional four, 10-fold or ½ log serial dilutions were produced to furnish a total of five drug concentrations plus control. Aliquots of 0.1 mL of these different drug dilutions were added to the appropriate microtiter wells already containing 0.1 mL of medium, resulting in the required final drug concentrations. Following drug addition, the plates were incubated at 37 °C, 5% carbon dioxide, 95% air, and 100% relative humidity for an additional 48 hours. For adherent cells, the test was finished by the addition of cold Cl3COOH. Cells were fixed in situ by the addition of 50 μL of cold 50% (w/v) Cl3COOH, and incubated at 4 °C for 1 hour. The supernatant was discarded, and the plates were washed with H2O (5×) and dried in air. Sulforhodamine B (SRB) solution (0.1 mL) at 0.4% (w/v) in 1% CH3COOH was added to each well, and plates were incubated at RT for 10 min. After staining, the unbound dye was removed by washing five times with 1% CH3COOH, and the plates were dried in the air. The bound stain is afterward solubilized with a 10 mM trizma base, and the absorbance is read on an automated plate reader at λ = 515 nm. Utilizing the seven absorbance measurements [time zero (tz), control growth (c), and test growth in the presence of the drug at the five concentration levels (ti)], the percentage growth was determined at each of the drug concentration levels. Growth inhibition (%) was calculated as: [(ti − tz)/(c − tz)] × 100, for concentrations where ti ≥ tz (1) [(ti − tz)/(tz)] × 100, for concentrations where ti < tz. (2) Three dose‒response parameters were calculated as follows. GI50 (growth inhibition of 50%) was determined from Equation (3), which is the drug concentration resulting in a 50% reduction in the net protein increase (as measured by SRB staining) in control cells in the course of the drug incubation. [(ti − tz)/(c − tz)] × 100 = 50 (3)

OVCAR-5 = settings: Homo sapiens; OVCAR-5, Ovarian Cancer
Method: as §1

ACHN = settings: Homo sapiens, Renal Cancer
Method: as §1

TK-10 = settings: Homo sapiens; TK-10, Renal Cancer
Method: as §1

SNB-75 = settings: Homo sapiens; SNB-75, CNS Cancer
Method: as §1

NCI/ADR-RES = settings: Homo sapiens, Ovarian Cancer
Method: as §1

HCT-116 = settings: Homo sapiens; HCT-116, Colon Cancer
Method: as §1

OVCAR-3 = settings: Homo sapiens; OVCAR-3, Ovarian Cancer
Method: as §1

786-0 = settings: Homo sapiens; 786-0, Renal Cancer
Method: as §1

OVCAR-8 = settings: Homo sapiens; OVCAR-8, Ovarian Cancer
Method: as §1

CAKI-1 = settings: Homo sapiens; CAKI-1, Renal Cancer
Method: as §1

SK-MEL-2 = settings: Homo sapiens; SK-MEL-2, Melanoma
Method: as §1

M14 = settings: Homo sapiens; M14, Melanoma
Method: as §1

SF-539 = settings: Homo sapiens; SF-539, CNS Cancer
Method: as §1

BT-549 = settings: Homo sapiens; BT-549, Breast Cancer
Method: as §1

OVCAR-4 = settings: Homo sapiens; OVCAR-4, Ovarian Cancer
Method: as §1

MDA-MB231ATCC = settings: Homo sapiens, MDA-MB-231, Breast Cancer
Method: as §1

NCI-H322M = settings: Homo sapiens, Non-small-Cell Lung Cancer
Method: as §1

HOP-62 = settings: Homo sapiens; HOP-62, Non-small-Cell Lung Cancer
Method: as §1

SK-OV-3 = settings: Homo sapiens; SK-OV-3, Ovarian Cancer
Method: as §1

A498 = settings: Homo sapiens; A498, Renal Cancer
Method: as §1

SF-268 = settings: Homo sapiens; SF-268, CNS Cancer
Method: as §1

SMILES	GI50 (A549/ATCC)	GI50 (OVCAR-5)	GI50 (ACHN)	GI50 (TK-10)	GI50 (SNB-75)	GI50 (NCI/ADR-RES)	GI50 (HCT-116)	GI50 (OVCAR-3)	GI50 (786-0)	GI50 (OVCAR-8)	GI50 (CAKI-1)	GI50 (SK-MEL-2)	GI50 (M14)	GI50 (SF-539)	GI50 (BT-549)	GI50 (OVCAR-4)	GI50 (MDA-MB231ATCC)	GI50 (NCI-H322M)	GI50 (HOP-62)	GI50 (SK-OV-3)	other results
O=c1cc(-c2ccccc2)oc2cc(OCCCC[P+](c3ccccc3)(c3ccccc3)c3ccccc3)cc(O)c12 [3a]	908 nM	1150 nM	633 nM	464 nM	165 nM	3290 nM	297 nM	368 nM	553 nM	350 nM	385 nM	238 nM	378 nM	380 nM	257 nM	370 nM	240 nM	976 nM	480 nM	329 nM	GI50 (A498): 422 nM; GI50 (SF-268): 380 nM
Cc1ccc([P+](CCCCOc2cc(O)c3c(=O)cc(-c4ccccc4)oc3c2)(c2ccc(C)cc2)c2ccc(C)cc2)cc1 [3b]	393 nM	684 nM	265 nM	313 nM	219 nM	1180 nM	248 nM	196 nM	373 nM	337 nM	228 nM	246 nM	331 nM	498 nM	344 nM	247 nM	320 nM	532 nM	307 nM	301 nM	GI50 (A498): 400 nM; GI50 (SF-268): 285 nM
COc1ccc([P+](CCCCOc2cc(O)c3c(=O)cc(-c4ccccc4)oc3c2)(c2ccc(OC)cc2)c2ccc(OC)cc2)cc1 [3c]	600 nM	852 nM	1280 nM	1090 nM	344 nM	2600 nM	337 nM	288 nM	1210 nM	408 nM	1030 nM	301 nM	478 nM	410 nM	349 nM	382 nM	315 nM	1420 nM	732 nM	382 nM	GI50 (A498): 1570 nM; GI50 (SF-268): 351 nM
O=c1cc(-c2ccccc2)oc2cc(OCCCC[P+](c3ccc(F)cc3)(c3ccc(F)cc3)c3ccc(F)cc3)cc(O)c12 [3d]	3210 nM	3000 nM	3230 nM	1740 nM	1670 nM	15900 nM	1670 nM	1420 nM	1830 nM	1840 nM	1780 nM	1730 nM	1750 nM	1930 nM	1610 nM	1640 nM	1910 nM	1990 nM	1560 nM	1620 nM	GI50 (A498): 2070 nM; GI50 (SF-268): 1570 nM
